Values of other authors in patent publication US10092609B2, “Process for preparing medicinal mycological preparations” (priority 2015, dated 2018).

Settings: in vivo

CC[C@H](C)C(=O)O[C@H]1C[C@@H](C)C=C2C=C[C@H](C)[C@H](CC[C@@H]3C[C@@H](O)CC(=O)O3)[C@H]21 [lovastatin]
reduction of “bad” LDL-cholesterol in circulation: about 20%
